In patent publication US20250281498A1, “FUSED AMINO PYRIMIDINE COMPOUNDS FOR TREATMENT OF SYNUCLEINOPATHIES AND TDP-43 PROTEINOPATHIES” (Ovid Therapeutics Inc., priority 2024, published 2025):

Columns and labels:
KCC3 = target: T1, KCC3 (Homo sapiens, UniProt Q9UHW9); assay: TI+ flux assay, HEK-293 cells expressing KCC3; format: cell-based; conditions: read-out: concentration at which effects on KCC3 were seen (EC50 chart FIG. 1G)
T1 construct: expressed in transfected cells; host or cells: HEK-293
T1 sequence (Q9UHW9 1-1150): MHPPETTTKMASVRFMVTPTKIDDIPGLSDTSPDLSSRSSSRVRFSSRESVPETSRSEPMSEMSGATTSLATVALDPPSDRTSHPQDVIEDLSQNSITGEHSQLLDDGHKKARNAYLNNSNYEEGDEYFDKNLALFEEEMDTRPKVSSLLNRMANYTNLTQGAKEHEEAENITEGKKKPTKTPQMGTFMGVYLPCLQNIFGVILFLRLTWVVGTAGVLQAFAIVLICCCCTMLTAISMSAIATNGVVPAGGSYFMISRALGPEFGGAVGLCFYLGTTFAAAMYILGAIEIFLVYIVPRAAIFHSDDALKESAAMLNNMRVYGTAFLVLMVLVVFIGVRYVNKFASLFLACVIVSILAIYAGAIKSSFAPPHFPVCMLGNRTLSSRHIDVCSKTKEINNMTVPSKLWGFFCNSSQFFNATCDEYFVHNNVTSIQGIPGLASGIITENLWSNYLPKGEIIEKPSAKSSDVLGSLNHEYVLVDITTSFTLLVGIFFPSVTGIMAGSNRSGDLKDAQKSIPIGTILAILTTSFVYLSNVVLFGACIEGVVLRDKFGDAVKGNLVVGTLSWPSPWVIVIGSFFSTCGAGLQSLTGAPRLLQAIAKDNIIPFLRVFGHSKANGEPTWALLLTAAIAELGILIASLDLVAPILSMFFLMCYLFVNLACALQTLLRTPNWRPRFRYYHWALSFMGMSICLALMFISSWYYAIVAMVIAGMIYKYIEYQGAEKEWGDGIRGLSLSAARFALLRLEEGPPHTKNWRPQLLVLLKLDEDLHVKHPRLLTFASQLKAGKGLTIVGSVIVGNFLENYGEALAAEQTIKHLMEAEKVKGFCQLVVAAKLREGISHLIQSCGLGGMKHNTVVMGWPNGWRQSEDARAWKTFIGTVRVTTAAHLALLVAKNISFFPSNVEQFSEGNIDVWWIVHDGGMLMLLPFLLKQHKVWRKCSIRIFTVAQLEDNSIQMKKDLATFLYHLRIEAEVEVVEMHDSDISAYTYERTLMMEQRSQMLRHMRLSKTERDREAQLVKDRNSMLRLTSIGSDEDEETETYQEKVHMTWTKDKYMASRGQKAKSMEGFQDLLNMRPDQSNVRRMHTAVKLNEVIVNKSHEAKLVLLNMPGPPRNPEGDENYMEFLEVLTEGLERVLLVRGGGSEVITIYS
Description: (§1) FLIPR TI Flux assay. HEK-293 cells were washed with HBSS, and then incubated with loading buffer containing TI sensitive fluorescent dye (https://www.moleculardevices.com), 20 μM bumetanide 20 μM ouabain and 2.5 mM probenecid for 1 h at room temperature (RT) under control conditions or with drugs in the dark using a FlexStation 3 microplate reader (Molecular Devices) and imaged […] for 30 min. Stimulus buffer was added containing 5 mM K^+/0.5 mM Tl^+ and cells were imaged every 1.5 over a 190 second time course The initial rate Tl^+ uptake (Relative Fluorescence Units (RFU) per second) was determined following addition of the stimulus buffer as outlined previously (Conway et al., 2017, supra) (Lee et al., 2022, supra).
(§2) Several studies have shown that the activity and plasma membrane accumulation of KCC2 is potentiated via phosphorylation of S940, a process mediated by the activity of protein kinase C and protein phosphatase 1 (Lee et al., 2011, supra; Lee et al., J Biol Chem 282, 29777-29784 (2007); Moore et al., Proc. Natl. Acad. Sci. U.S.A. 115, 10166-10171 (2018); Moore et al., Trends Neurosci. 40, 555-571 (2017); Silayeva et al., Proc. Natl. Acad. Sci. U.S.A. 112, 3523-3528 (2015)). […] Compared to KCC2, effects on KCC3, KCC4, and NKCC1 were only seen at concentrations more than 35-fold that of KCC2 (>100 μM) (FIG. 1G).

KCC2-S940A = target: T2, KCC2-S940A (Homo sapiens, UniProt Q9H2X9, S963A); assay: TI+ flux assay, HEK-293 cells expressing KCC2-S940A; format: cell-based
T2 construct: expressed in transfected cells; host or cells: HEK-293
T2 sequence (Q9H2X9 1-1116 isoform Q9H2X9-2 S940A): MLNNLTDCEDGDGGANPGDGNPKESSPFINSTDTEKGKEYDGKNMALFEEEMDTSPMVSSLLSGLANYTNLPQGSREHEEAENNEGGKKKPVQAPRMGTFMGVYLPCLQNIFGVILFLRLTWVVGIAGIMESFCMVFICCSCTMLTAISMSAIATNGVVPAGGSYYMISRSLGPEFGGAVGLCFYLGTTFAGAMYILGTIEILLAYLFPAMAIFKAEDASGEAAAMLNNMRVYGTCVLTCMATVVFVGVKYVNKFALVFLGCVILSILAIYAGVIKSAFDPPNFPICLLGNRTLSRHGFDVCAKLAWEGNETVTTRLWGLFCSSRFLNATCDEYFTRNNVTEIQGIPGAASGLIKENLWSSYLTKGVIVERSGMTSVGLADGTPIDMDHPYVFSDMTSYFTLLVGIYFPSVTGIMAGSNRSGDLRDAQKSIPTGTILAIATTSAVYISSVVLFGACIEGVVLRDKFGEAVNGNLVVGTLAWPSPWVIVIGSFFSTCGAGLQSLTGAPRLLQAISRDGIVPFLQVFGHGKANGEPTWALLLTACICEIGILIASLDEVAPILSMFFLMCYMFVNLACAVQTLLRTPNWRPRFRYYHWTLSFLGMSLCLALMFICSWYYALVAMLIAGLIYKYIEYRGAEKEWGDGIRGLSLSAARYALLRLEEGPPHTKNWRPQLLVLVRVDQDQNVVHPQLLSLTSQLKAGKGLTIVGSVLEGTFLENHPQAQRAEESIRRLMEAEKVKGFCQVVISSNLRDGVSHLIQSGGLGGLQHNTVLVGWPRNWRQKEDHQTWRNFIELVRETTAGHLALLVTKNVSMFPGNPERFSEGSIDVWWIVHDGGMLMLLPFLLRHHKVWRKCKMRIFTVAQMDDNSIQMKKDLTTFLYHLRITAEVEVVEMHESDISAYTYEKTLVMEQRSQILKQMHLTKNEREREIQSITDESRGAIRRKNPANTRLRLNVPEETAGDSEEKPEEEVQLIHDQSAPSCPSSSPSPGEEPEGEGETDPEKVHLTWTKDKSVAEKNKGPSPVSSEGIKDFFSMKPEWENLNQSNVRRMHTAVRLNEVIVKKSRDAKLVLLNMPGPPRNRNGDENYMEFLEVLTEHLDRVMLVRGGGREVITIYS
Description: as §1, §2

`C[C@@H]1CN(c2nc3c(c(Nc4ccc(C5CCCCC5)cc4)n2)COC3)CCO1` [Compound A, (R)—N-(4-cyclohexylphenyl)-2-(2-methylmorpholino)-5,7-dihydrofuro[3,4-d]pyrimidin-4-amine] was tested, and the EC50 (KCC3) was over 100 µM and the “activity of KCC2-S940A construct” value (KCC2-S940A) was “increased the activity”.
